Laboratory results: ChEMBL document CHEMBL4627321, “Enantioselective synthesis of tetrahydrocarbazoles via trienamine catalysis and their anxiolytic-like activity” (Bioorg Med Chem Lett, 2020)
The source made the active and inactive calls. The rule behind the calls is not given here.

Key:
Mus musculus [1] = assay: Anxiolytic activity in BALB/c mouse at 3.3 mg/kg, po after 5 mins in presence of GABAA receptor antagonist 0.7 mg/kg bicuculline by cylinder exploratory test; assay type: functional, organism-based
Mus musculus [2] = assay: Anxiolytic activity in BALB/c mouse at 3.3 mg/kg, po after 5 mins in presence of 1 mg/kg yohimbine by cylinder exploratory test; assay type: functional, organism-based
Mus musculus [3] = assay: Anxiolytic activity in BALB/c mouse at 25 mg/kg, po administered 1 hr prior to experiment by cylinder exploratory test relative to control; assay type: functional
[4] = Effect on locomotor activity in BALB/c mouse assessed as reduction in time spent in rotarod at <25 mg/kg, po by rotarod test; assay type: ADME, organism-based; settings: in vivo
Mus musculus [5] = assay: Anxiolytic activity in BALB/c mouse assessed as reduction in anxiety like behaviour administered orally 1 hr prior to experiment by cylinder exploratory test; assay type: functional; settings: for ED50: po
Mus musculus [6] = assay: Anxiolytic activity in BALB/c mouse at 3.3 mg/kg, po after 5 mins in presence of 1 mg/kg ketanserin by cylinder exploratory test; assay type: functional, organism-based
Mus musculus [7] = assay: Anxiolytic activity in BALB/c mouse at 7.7 mg/kg, po after 5 mins in presence of GABAA receptor antagonist 0.7 mg/kg bicuculline by cylinder exploratory test; assay type: functional, organism-based
[8] = Effect on locomotor activity in BALB/c mouse assessed as reduction in time spent in rotarod at 100 mg/kg, po measured after 1 hr post treatment by rotarod test; assay type: ADME, organism-based; settings: in vivo
Mus musculus [9] = assay: Anxiolytic activity in BALB/c mouse at 7.7 mg/kg, po after 5 mins in presence of 1 mg/kg yohimbine by cylinder exploratory test; assay type: functional, organism-based
Mus musculus [10] = assay: Anxiolytic activity in BALB/c mouse at 7.7 mg/kg, po after 5 mins in presence of 1 mg/kg ketanserin by cylinder exploratory test; assay type: functional, organism-based

**Q.** Which Activity (Mus musculus [1]) does the source give for `CCOC(=O)[C@]1(C#N)[C@@H](c2ccccc2)Cc2c(c3ccccc3n2C(=O)OC(C)(C)C)[C@@H]1CC=O` here?
**A.** inactive

**Q.** What about the Activity (Mus musculus [2]) of the same compound?
**A.** Active

**Q.** What about the Activity (Mus musculus [3]) of the same compound?
**A.** 72%

**Q.** What about the Activity [4] of the same compound?
**A.** Non-Toxic

**Q.** What about the Activity (Mus musculus [5]) of the same compound?
**A.** Dose-dependent effect

**Q.** And the ED50 (Mus musculus [5])?
**A.** 3.3 mg/kg

**Q.** What about the Activity (Mus musculus [6]) of the same compound?
**A.** Active

**Q.** Which Activity (Mus musculus [3]) does the source give for `CCOC(=O)[C@]1(C#N)[C@@H](c2ccccc2)Cc2c(c3ccccc3n2Cc2ccccc2)[C@@H]1CC=O` here?
**A.** 83.4%

**Q.** What about the Activity [4] of the same compound?
**A.** Non-Toxic

**Q.** And the Activity (Mus musculus [7])?
**A.** inactive

**Q.** What about the Activity [8] of the same compound?
**A.** Toxic

**Q.** What about the Activity (Mus musculus [5]) of the same compound?
**A.** Dose-dependent effect

**Q.** And the ED50 (Mus musculus [5])?
**A.** 7.7 mg/kg

**Q.** And the Activity (Mus musculus [9])?
**A.** Active

**Q.** And the Activity (Mus musculus [10])?
**A.** Active
